The source of these data is patent US9834518B2, “Compounds for inhibiting cell proliferation in EGFR-driven cancers” (ARIAD Pharmaceuticals, Inc., priority 2011, dated 2017).

Experiment [1] concerns the target EGFR bearing the L858R mution (Homo sapiens, UniProt P00533, L858R). Put plainly: Kinase inhibition, EGFR L858R. It counts as biochemical. The following applies: 10 μM ATP; 10 pt curves, 3 μM top concentration (singlicates). In outline: (§1)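 Kinase inhibition was measured against native human EGFR and the L858R and L858R/T790M mutants. Compounds were run as 10-point curves in singlicate from a 3 μM top concentration, with 10 μM ATP.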

In experiment [2] the test system is BAF3 EGFR L858R-T790M PURO POOL. The experiment is described as follows: Cell proliferation (MTT), BAF3 EGFR L858R-T790M. It counts as cell-based. The following applies: Ba/F3 EGFR. In outline:
(§2)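 Viability by MTT colorimetry. Cells: BaF3 transfected with mutant EGFR, plus a wildtype-EGFR BaF3 counter-screen.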

Experiment [3] has as its target human EGFR (native sequence) (Homo sapiens, UniProt P00533). Put plainly: Kinase inhibition, human EGFR (native sequence). The following applies: 10 μM ATP; 10 pt curves, 3 μM top concentration (singlicates). It counts as biochemical. Summed up:
as §1

Experiment [4] addresses EGFR bearing the L858R/T790M double mutation (Homo sapiens, UniProt P00533, L858R/T790M). The experiment is described as follows: Kinase inhibition, EGFR L858R/T790M. The class given is biochemical. The settings on record: 10 μM ATP; 10 pt curves, 3 μM top concentration (singlicates). In outline:
as §1

Another experiment has as its system BAF3 PARENTAL
The experiment is described as follows: Cell proliferation (MTT), BAF3 parental. The class given is cell-based. The settings on record: Mus musculus. The method, then:
We also assessed the antiproliferative activity of compounds of Formula (I) against BaF3 cells expressing the target EGFR mutations or control (i.e., cell lines expressing wildtype EGFR). Assays were conducted using MTT.

Experiment [5] concerns the target BAF3 EGFR DEL T790M PURO POOL (Homo sapiens, UniProt P00533, DEL746-750/T790M, cells depend on it). Put plainly: Cell proliferation (MTT), BAF3 EGFR DEL T790M. The class given is cell-based. In outline: as §2

EGFR bearing the L858R/T790M double mutation, sequence (P00533 25-1210 T790M/L858R): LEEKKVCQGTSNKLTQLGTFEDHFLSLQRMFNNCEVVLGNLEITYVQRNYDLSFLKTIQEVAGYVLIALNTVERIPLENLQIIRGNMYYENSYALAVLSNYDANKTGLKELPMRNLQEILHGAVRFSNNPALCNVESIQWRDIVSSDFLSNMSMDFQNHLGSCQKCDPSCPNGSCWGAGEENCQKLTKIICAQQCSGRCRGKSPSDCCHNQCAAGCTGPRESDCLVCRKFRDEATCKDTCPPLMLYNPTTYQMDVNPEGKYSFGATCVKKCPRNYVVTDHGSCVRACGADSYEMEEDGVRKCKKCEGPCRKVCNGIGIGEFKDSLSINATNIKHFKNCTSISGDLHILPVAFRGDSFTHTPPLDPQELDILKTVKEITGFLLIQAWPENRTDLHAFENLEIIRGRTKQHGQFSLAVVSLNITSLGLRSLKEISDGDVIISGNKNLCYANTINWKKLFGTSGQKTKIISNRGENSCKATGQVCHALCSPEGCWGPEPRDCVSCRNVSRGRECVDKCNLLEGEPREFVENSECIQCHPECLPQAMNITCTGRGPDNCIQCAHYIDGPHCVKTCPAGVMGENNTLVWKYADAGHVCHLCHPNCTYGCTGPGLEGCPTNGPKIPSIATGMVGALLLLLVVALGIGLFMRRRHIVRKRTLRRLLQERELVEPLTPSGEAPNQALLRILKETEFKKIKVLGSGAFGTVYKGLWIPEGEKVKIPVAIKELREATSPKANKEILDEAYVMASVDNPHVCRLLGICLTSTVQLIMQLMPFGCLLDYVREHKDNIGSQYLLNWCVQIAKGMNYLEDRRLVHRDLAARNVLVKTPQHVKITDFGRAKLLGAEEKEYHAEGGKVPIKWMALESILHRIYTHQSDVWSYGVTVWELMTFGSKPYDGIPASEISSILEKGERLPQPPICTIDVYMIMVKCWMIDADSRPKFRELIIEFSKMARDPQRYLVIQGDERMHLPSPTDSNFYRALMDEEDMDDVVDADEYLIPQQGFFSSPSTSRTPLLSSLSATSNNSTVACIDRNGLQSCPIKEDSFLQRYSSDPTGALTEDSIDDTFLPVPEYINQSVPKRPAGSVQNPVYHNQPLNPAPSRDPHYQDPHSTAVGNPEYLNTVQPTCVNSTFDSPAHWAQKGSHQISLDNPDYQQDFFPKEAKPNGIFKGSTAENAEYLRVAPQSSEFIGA
human EGFR (native sequence), sequence (P00533 25-1210): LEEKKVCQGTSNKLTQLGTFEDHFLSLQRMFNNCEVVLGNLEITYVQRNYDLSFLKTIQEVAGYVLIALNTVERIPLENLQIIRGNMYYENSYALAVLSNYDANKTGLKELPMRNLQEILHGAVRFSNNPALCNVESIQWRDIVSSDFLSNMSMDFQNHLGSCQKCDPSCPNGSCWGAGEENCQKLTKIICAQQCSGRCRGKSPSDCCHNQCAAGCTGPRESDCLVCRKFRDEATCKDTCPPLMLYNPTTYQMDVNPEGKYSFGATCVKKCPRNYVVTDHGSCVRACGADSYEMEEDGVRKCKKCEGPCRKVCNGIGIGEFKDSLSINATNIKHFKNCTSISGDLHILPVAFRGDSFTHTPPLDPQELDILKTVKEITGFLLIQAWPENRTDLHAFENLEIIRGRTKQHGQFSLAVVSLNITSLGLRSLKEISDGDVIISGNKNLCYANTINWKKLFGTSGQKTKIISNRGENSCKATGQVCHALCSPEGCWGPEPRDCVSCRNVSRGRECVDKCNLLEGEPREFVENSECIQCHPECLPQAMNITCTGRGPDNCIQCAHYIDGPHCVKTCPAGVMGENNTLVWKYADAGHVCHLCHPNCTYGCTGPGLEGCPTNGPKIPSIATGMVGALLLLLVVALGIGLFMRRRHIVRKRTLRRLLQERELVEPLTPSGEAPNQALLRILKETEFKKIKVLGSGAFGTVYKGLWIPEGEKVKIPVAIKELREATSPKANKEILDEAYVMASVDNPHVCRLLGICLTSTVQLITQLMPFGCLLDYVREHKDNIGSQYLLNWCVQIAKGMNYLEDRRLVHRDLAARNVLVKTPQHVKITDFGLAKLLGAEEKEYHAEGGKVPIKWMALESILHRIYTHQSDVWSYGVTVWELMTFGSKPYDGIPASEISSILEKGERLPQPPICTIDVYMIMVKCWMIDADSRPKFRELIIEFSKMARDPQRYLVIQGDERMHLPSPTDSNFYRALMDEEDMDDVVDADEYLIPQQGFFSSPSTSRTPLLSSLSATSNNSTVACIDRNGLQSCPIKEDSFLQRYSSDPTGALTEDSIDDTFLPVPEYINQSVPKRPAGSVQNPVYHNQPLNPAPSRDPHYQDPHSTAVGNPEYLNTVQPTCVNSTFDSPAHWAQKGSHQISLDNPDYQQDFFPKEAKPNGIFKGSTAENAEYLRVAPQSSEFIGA
EGFR bearing the L858R mution, sequence (P00533 25-1210 L858R): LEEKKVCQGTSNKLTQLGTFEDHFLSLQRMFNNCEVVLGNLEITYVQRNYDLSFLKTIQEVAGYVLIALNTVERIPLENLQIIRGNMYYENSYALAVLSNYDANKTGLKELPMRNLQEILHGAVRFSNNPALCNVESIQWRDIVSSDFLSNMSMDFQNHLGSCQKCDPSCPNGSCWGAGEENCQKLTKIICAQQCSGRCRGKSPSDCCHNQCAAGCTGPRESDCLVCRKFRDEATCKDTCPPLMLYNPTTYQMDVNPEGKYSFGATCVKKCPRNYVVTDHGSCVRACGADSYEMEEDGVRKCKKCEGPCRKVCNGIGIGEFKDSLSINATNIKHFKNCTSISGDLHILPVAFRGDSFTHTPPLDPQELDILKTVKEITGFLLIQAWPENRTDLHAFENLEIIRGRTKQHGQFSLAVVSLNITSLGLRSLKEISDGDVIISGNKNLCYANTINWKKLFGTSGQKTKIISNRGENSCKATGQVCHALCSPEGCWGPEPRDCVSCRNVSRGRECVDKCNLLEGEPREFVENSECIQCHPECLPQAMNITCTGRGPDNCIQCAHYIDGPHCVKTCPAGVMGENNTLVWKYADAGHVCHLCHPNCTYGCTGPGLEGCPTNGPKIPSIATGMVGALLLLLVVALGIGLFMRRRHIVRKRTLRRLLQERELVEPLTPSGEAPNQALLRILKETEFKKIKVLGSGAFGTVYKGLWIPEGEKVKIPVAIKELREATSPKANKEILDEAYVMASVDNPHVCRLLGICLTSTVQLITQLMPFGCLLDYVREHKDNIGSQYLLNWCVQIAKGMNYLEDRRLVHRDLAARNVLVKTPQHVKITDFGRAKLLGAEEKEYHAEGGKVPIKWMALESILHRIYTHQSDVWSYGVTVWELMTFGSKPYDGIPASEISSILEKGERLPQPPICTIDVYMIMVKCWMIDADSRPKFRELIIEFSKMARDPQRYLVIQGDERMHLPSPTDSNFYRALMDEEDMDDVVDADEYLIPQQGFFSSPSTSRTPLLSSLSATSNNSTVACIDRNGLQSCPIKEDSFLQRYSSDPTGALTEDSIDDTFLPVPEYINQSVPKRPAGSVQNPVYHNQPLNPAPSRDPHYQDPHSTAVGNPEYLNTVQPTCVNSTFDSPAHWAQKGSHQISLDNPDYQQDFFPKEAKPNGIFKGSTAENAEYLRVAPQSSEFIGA
BAF3 EGFR DEL T790M PURO POOL, sequence (P00533 with tags, fused parts or gaps DEL746-750/T790M): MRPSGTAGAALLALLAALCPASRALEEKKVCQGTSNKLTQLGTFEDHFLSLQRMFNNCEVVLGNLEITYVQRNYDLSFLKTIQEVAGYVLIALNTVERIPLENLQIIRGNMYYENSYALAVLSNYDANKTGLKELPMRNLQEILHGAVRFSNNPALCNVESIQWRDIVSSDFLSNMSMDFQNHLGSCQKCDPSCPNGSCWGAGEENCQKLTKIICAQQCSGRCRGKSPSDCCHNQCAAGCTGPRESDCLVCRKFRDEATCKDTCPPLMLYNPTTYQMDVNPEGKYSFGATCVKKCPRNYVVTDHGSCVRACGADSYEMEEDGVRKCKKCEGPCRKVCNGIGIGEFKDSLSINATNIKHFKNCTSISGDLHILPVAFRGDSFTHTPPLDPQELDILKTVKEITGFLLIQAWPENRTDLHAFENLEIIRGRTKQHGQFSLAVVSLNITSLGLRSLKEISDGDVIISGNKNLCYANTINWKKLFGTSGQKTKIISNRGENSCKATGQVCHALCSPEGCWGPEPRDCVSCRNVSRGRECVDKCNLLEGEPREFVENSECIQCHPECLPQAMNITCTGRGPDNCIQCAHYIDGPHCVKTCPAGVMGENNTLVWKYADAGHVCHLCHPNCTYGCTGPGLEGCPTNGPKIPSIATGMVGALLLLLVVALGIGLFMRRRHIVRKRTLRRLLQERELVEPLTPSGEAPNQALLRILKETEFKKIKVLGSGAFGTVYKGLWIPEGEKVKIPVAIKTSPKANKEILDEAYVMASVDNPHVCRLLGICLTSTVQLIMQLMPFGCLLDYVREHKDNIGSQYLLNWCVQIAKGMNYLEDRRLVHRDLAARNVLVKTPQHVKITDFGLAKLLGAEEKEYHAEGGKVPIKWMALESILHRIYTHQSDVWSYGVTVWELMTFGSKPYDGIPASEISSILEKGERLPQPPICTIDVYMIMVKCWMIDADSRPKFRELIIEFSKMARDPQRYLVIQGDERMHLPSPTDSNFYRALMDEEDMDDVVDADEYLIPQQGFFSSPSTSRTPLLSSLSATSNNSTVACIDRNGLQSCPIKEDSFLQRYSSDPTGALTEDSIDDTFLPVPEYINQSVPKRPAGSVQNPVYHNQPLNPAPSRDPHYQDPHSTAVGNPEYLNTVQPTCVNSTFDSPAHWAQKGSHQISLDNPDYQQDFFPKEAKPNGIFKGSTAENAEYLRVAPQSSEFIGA

One may read the IC50 as the concentration that inhibits the measured activity by half. For the compound `COCCOc1cc(OC)c(Nc2ncc(Cl)c(Nc3ccccc3P(C)(C)=O)n2)cc1NC(=O)/C=C/CN(C)C` [Example 57, (E)-N-(5-((5-chloro-4-((2-(dimethylphosphoryl)phenyl)amino)pyrimidin-2-yl)amino)-4-methoxy-2-(2-methoxyethoxy)phenyl)-4-(dimethylamino)but-2-enamide], the IC50 is below 51 nM in experiment [1]; at least 250 nM in experiment [2]; at least 250 nM in experiment [3]; below 51 nM in experiment [4]; at least 250 nM in the experiment with BAF3 PARENTAL; at least 250 nM in experiment [5].

With `COc1ccc(NC(=O)C2CO2)cc1Nc1ncc(Cl)c(Nc2ccccc2P(C)(C)=O)n1` (stereo not drawn) [Example 58, N-(3-((5-chloro-4-((2-(dimethylphosphoryl)phenyl)amino)pyrimidin-2-yl)amino)-4-methoxyphenyl)oxirane-2-carboxamide], the IC50 is below 51 nM in experiment [1]; below 51 nM in experiment [2]; below 51 nM in experiment [3]; below 51 nM in experiment [4]; at least 250 nM in the experiment with BAF3 PARENTAL; below 51 nM in experiment [5].

Turning to `COc1cc(N2CCOCC2)c(NC(=O)C2CO2)cc1Nc1ncc(Cl)c(Nc2ccccc2P(C)(C)=O)n1` (stereo not drawn) [Example 59, N-(5-((5-chloro-4-((2-(dimethylphosphoryl)phenyl)amino)pyrimidin-2-yl)amino)-4-methoxy-2-morpholinophenyl)oxirane-2-carboxamide], the IC50 in experiment [1] was below 51 nM; in experiment [2], 101 to 250 nM; in experiment [3], below 51 nM; in experiment [4] it was below 51 nM; in the experiment on BAF3 PARENTAL, at least 250 nM; in experiment [5], below 51 nM.

As for `C=CP(C)(=O)Cc1ccc(OC)c(Nc2ncc(Cl)c(Nc3ccccc3P(C)(C)=O)n2)c1` (stereo not drawn) [Example 60, (2-((5-chloro-2-((2-methoxy-5-((methyl(vinyl)phosphoryl)methyl)phenyl)amino)pyrimidin-4-yl)amino)phenyl)dimethylphosphine oxide], the IC50 (in experiment [1]; in experiment [2]; in experiment [3]; in experiment [4]; in the experiment on BAF3 PARENTAL; in experiment [5]) was at least 250 nM throughout.

`C=CC(=O)Nc1cc(Nc2ncc(Cl)c(Nc3ccccc3P(C)(C)=O)n2)c(OC)cc1N(CC)CCN(CC)CC` [Example 61, N-(5-((5-chloro-4-((2-(dimethylphosphoryl)phenyl)amino)pyrimidin-2-yl)amino)-2-((2-(diethylamino)ethyl)(ethyl)amino)-4-methoxyphenyl)acrylamide]: the half-inhibitory concentration (IC50) in experiment [1] was below 51 nM; in experiment [2], below 51 nM; in experiment [3], below 51 nM; in experiment [4] it was below 51 nM; with BAF3 PARENTAL, at least 250 nM; in experiment [5], below 51 nM.

Take `C=CC(=O)Nc1cc(Nc2ncc(CC)c(Nc3ccccc3P(C)(C)=O)n2)c(OC)cc1N(C)CCN(CC)CC` [Example 62, N-(2-((2-(diethylamino)ethyl)(methyl)amino)-5-((4-((2-(dimethylphosphoryl)phenyl)amino)-5-ethylpyrimidin-2-yl)amino)-4-methoxyphenyl)acrylamide]: the IC50 was below 51 nM in experiment [1]; below 51 nM in experiment [2]; 51 to 100 nM in experiment [3]; 51 to 100 nM in experiment [4]; at least 250 nM in the experiment on BAF3 PARENTAL; below 51 nM in experiment [5].

For the compound `C=CC(=O)Nc1ccc(OC)c(Nc2ncc(CC)c(Nc3ccccc3P(C)(C)=O)n2)c1` [Example 63, N-(3-((4-((2-(dimethylphosphoryl)phenyl)amino)-5-ethylpyrimidin-2-yl)amino)-4-methoxyphenyl)acrylamide], the IC50 in experiment [1] is below 51 nM; in experiment [2], below 51 nM; in experiment [3], below 51 nM; in experiment [4], below 51 nM; with BAF3 PARENTAL, at least 250 nM; in experiment [5], below 51 nM.
